Measured values published in patent US6635637B2, “Cyclic oxyguanidine protease inhibitors” (Dimensional Pharmaceuticals, Inc., priority 2000, dated 2003).
Structures can show the parent of a compound that is named as a salt.

Molecular target: T1, human α-thrombin (Homo sapiens, UniProt P00734)
T1 construct: Purified human α-thrombin; purchased Enzyme Research Laboratories (South Bend, Ind.)
Assay: In vitro inhibition of purified thrombin (p-nitroanilide substrate hydrolysis, Ki determination)
Format: biochemical
Settings: purified human α-thrombin 0.5 nM; substrate N-succinyl-Ala-Ala-Pro-Arg-p-nitroanilide 32 μM; 37° C.; pH 7.5
Source text: Reagents: All buffer salts were obtained from Sigma Chemical Company (St. Louis, Mo.), and were of the highest purity available. The enzyme substrates, N—N-benzoyl-Phe-Val-Arg-p-nitroanilide (Sigma B7632), N-benzoyl-Ile-Glu-Gly-Arg-p-nitroanilide hydrochloride (Sigma B2291), N-p-Tosyl-Gly-Pro-Lys-p-nitroanilide (Sigma T6140), N-succinyl-Ala-Ala-Pro-Phe-p-nitroanilide (Sigma S7388) and N-CBZ-Val-Gly-Arg-p-nitroanilide (Sigma C7271) were obtained from Sigma. N-succinyl-Ala-Ala-Pro-Arg-p-nitroanilide (BACHEM L-1720) and N-succinyl-Ala-Ala-Pro-Val-p-nitroanilide (BACHEM L-1770) were obtained from BACHEM (King of Prussia, Pa.).
Human α-thrombin, human factor Xa and human plasmin were obtained from Enzyme Research Laboratories (South Bend, Ind.). Bovine α-chymotrypsin (Sigma C4129), bovine trypsin (Sigma T8642) and human kidney cell urokinase (Sigma U5004) were obtained from Sigma. Human leukocyte elastase was obtained from Elastin Products (Pacific, Mo.).
Ki Determinations: All assays are based on the ability of the test compound to inhibit the enzyme catalyzed hydrolysis of a peptide p-nitroanilide substrate. […] In general, substrate concentrations are lower than the experimentally determined value for Km. […]
In a typical Ki determination, into each well of a 96 well plate is pipetted 280 μL of substrate solution, 10 μL of test compound solution, and the plate allowed to thermally equilibrate at 37° C. in a Molecular Devices plate reader for >15 minutes. Reactions were initiated by the addition of a 10 μL aliquot of enzyme and the absorbance increase at 405 nm is recorded for 15 minutes. […] The ratio of the velocity (rate of change in absorbance as a function of time) for a sample containing no test compound is divided by the velocity of a sample containing test compound, and is plotted as a function of test compound concentration. The data are fit to a linear regression, and the value of the slope of the line calculated. The inverse of the slope is the experimentally determined Ki value. […]

Row | Ki [nM] | Structure (SMILES)
1 | 8 | C=CCN(C(=O)c1cc(Cl)cc(OCC2CCN(C(=N)N)OC2)c1)C1CCCC1 (stereo not drawn) [Example 3, 5-{[5-Chloro-3-(N-cyclopentyl-N-prop-2-enylcarbamoyl)phenoxy]methyl}-1,2-oxazaperhydroine-2-carboxamidine trifluoroacetate]
2 | 7 | Cc1cc(OCC2CCN(C(=N)N)OC2)cc(OS(=O)(=O)c2ccccc2S(C)(=O)=O)c1 (stereo not drawn) [Example 1, 3-[(2-Amidino(1,2-oxazaperhydroin-5-yl))methoxy]-5-methylphenyl 2-(methylsulfonyl)benzenesulfonate Trifluoroacetate]
3 | 13 | CS(=O)(=O)c1ccccc1S(=O)(=O)Oc1cc(Cl)cc(OCC2CCN(C(=N)N)OC2)c1 (stereo not drawn) [Example 2, 3-[(2-Amidino(1,2-oxazaperhydroin-5-yl))methoxy]-5-chlorophenyl 2-(methylsulfonyl)benzenesulfonate trifluoroacetate]
